Patent publication US20170334919A1, “2-((4-AMINO-3-(3-FLUORO-5-HYDROXYPHENYL)-1H-PYRAZOLO[3,4-D]PYRIMIDIN-1 -YL)METHYL)-3-(2-(TRIFLUORO-MET HYL)BENZYL)QUINAZOLIN-4(3H)-ONE DERIVATIVES AND THEIR USE AS PHOSPHOINOSITIDE 3-KINASE INHIBITORS” (RESPIVERT LTD., priority 2013, published 2017)
Where two headings read alike, the source gives them in different places. Each block holds one molecule with its values, some of them ahead of it.

What was measured:
[1] = test system: cigarette smoke-induced cell accumulation and biomarkers in murine BALF; test: Cigarette smoke model; assay type: in vivo, A/J mice
Procedure: A/J mice (males, 5 weeks old) were exposed to cigarette smoke (4% cigarette smoke, diluted with compressed air) for 30 min/day for 11 days using a Tobacco Smoke Inhalation Experiment System for small animals (Model SIS-CS; Sibata Scientific Technology, Tokyo, Japan). Test substances were administered once daily for 3 days after the final cigarette smoke exposure (intra-nasal dose comprising 35 μL of solution in 50% DMSO/isotonic saline).
At 12 hr after administration of the last dose, animals were anesthetized, the trachea was cannulated and bronchial alveolar lavage (BAL) was carried out by the instillation into and then withdawal from the lungs, of PBS (100 mL/kg). Total cell numbers in the BALF samples were measured using a haemocytometer under a phase-contrast microscope. The proportions of alveolar macrophages and neutrophils were determined by FACS analysis using anti-mouse MOMA2-FITC (macrophage) or anti-mouse 7/4 (neutrophil).
Cells were suspended in PBS and were incubated with anti-MOMA2-FITC (2 μg/mL, Catalogue no SM065F, Acris Antibodies GmbH, Herford, Germany) or anti-7/4-FITC (2 μg/mL, Catalogue no CL050F, Acris Antibodies GmbH, Herford, Germany) for 30 min at 30° C., and also counterstained with propidium iodide (2 μg/mL) to allow exclusion of necrotic cells. The cells were washed with PBS, and transferred to FACS tubes. Samples was set in a flow cytometer (ALTRA II; Beckman Coulter Japan, Tokyo, Japan), and a single-parameter FL2 [PMT2] (FITC) histogram with log x-axis was plotted to illustrate relative intensity of FITC.
Data files are stored for subsequent analysis using Kaluza analysis software (ver. 1.2) to calculate the proportion of each cell type. The levels of CXCL1(KC), MCP1, TNFα, IL-17 or osteopontin in BALF were determined using Quentikine® mouse KC, MCP1, TNFα, IL-17 or osteopontin ELISA kit (R&D systems, Inc., Minneapolis, Minn., USA). The presence of malondialdehyde was measured using OxiSelect® TBARS Assay Kit (MDA Quantitation; Cell Biolabs Inc, San Diego, Calif., USA).

[2] = test system: PBMCs; test: Cytostim-induced cytokine production in PBMCs; assay type: cell-based; settings: Homo sapiens, PBMC
Procedure: As a means of assessing PI3Kδ-dependent cell function, cytostim-induced IL-4, IL-5, IL-13 and IFNγ production in PBMCs were evaluated by Luminex multiplex assay. All healthy volunteers were recruited by Quintiles Limited (London, UK), and blood samples were delivered to Respivert Ltd. This study was approved by the local Ethics Committee, and all subjects gave written informed consent.
PBMC suspensions (200 μL; 2×10^6 cells/mL) were added to a 96-well plate. Cells were treated with either test compounds in neat DMSO or DMSO as vehicle (2 μL) and incubated at RT for 1 hr. Cytostim (Miltentyi Biotec, Surrey, UK) was introduced at a ratio of 1:50 and the cells were incubated for 20 hr (37° C.; 5% CO2). Plates were spun at 500×g for 5 min and the supernatant collected. A high sensitivity cytokine magnetic bead kit (#HSCYTMAG-60SK, Millipore, Watford, UK) was used to measure the four analytes (IL-4, IL-5, IL-13 and IFNγ) by Luminex as follows: The magnetic antibody beads were multiplexed and incubated in a 96-well plate with standard, media only or sample (50 μL) overnight with shaking at 4° C. After washing twice with Millipore wash buffer provided in the kit using a magnetic plate washer, the beads were incubated for 1 hr with detection antibody (50 μL) with shaking at RT. A streptavidin-phycoerythrin solution provided in the kit was added for 30 min with shaking at RT. After washing, the beads were re-suspended in sheath fluid (150 μL) and analysed immediately. The Luminex system was set up to count 50 beads and the amount of each analyte in the supernatant was calculated against a standard curve. The IC50 values were determined from concentration-inhibition curves using XL-Fit (IDBS, Guildford, UK)

[3] = test system: d-U937 cells; test: MTT assay, cell viability; assay type: cell-based, human; settings: 10 μg/mL
Procedure: PMA-differentiated U937 cells were pre-incubated with test compound (10 μg/mL) or vehicle for 4 hr in 5% FCS or 10% FCS for 24 hr. The supernatant was replaced with new media (200 μL) and MTT stock solution (10 μL, 5 mg/mL) was added to each well. After 1 hr incubation, the media were removed, 200 μL of DMSO was added to each well and the plates were shaken lightly for 1 hr prior to reading the absorbance at 550 nm. The percentage loss of cell viability was calculated for each well relative to vehicle (0.5% DMSO)-treatment.

[4] = test system: THP1 cells; test: Chemotaxis to MCP1; assay type: cell-based; settings: Homo sapiens, THP-1; read-out: REC50, THP1 cell chemotaxis to MCP1
Procedure: As a means of assessing PI3K γ dependent cell function, THP1 cell chemotaxis to MCP-1 was evaluated using a 48 well-chemotaxis chamber. THP1 cells from a human leukemic monocyte lymphoma cell line, (purchased from ATCC Manassas, Va.) were maintained in RPMI 1640 (Invitrogen Ltd., Paisley, UK) with 10% FCS at 37° C. Cells were re-suspended in 0.5% BSA/RPM11640 (2×10^6 cells/mL) and incubated for 10 min at 37° C., 5% CO2. Cell suspension aliquots (500 μL) were then treated either with compounds in neat DMSO or with DMSO as vehicle (2.5 μL) for 1hr (37° C., 5% CO2).
MCP1 (50 nM) was prepared in 0.5% BSA/RPM11640. MCP1 solution (50 μL) was added to each well in the bottom plate of a 48-well chemotaxis chamber (AP48, NeuroProbe Inc., Gaithersburg, Md.). A polycarbonate membrane (8 μm) was mounted on the bottom chamber, and then the top plate was mounted on the bottom chamber and filter membrane. […]
A solution of MTT (50 μL) in 10% FCS phenol red-free RPM11640 was added to each well, and the plate was incubated for 2 hr (37° C., 5% CO2). Neat DMSO (100 μL) was added to each well to extract formazan formed from MTT and the plates were shaken lightly for 1 hr prior to measuring the absorbance at 595 nm (Varioskan® Flash, Thermo-Fisher Scientific). […] Relative EC50 values were determined from concentration-inhibition curves using XL-Fit (idbs, Guildford, UK).

[5] = test system: IFNγ-primed U937 cells; test: Superoxide anion production assay (zymosan-induced ROS); assay type: cell-based; settings: Homo sapiens, U-937; read-out: REC50, Zymosan-induced ROS production in IFNγ-primed U937 cells
Procedure: As a means of assessing PI3Kδ dependent cell function, superoxide anion production in IFNγ-primed U937 cells was evaluated by a chemiluminescence assay. The U937 cells (purchased from ATCC, Manassas, Va.) were maintained in RPMI 1640 (Invitrogen Ltd., Paisley, UK) with 10% FCS at 37° C. The cells were suspended at a density of 10^7cells/mL in 40 mL 10% FCS RPMI 1640, and treated with 20 μL of 100 μg/mL IFNγ solution (final concentration: 50 ng/mL), and incubated at 37° C., 5% CO2 for 4 days.
IFNγ-primed U937 cells were seeded at 0.2×10^6 cells/well in a 96-well plate, and pre-incubated with test compounds for 2 hr in starvation media (0.5% FCS RPMI1640-phenol red free). Zymosan A (10 mg) from Saccharomyses cerevisiae (ex Sigma-Aldlich) was resuspended in 1 mL of 150 mM NaCl and boiled at 100° C. for 15 min. After boiling, Zymosan particles were washed with 1 mL of PBS twice, and incubated with 0.5 mL of BioParticles™ opsonized reagents (Life technologies) for 60 min at 37° C. […] Chemiluminescence indicating released superoxide anion was measured every 15 min up to 60 min by luminometric measurement (Varioskan® Flash, Thermo-Fisher Scientific).
The data at 60 min after incubation was used for analysis. […] The relative EC50 values were calculated from the concentration-response curves generated by the serial dilutions of the test compounds using XL-Fit (idbs, Guildford, UK).

SMILES: C[C@@H]1C[C@H]2[C@@H]3CCC4=CC(=O)C=C[C@]4(C)[C@@]3(F)[C@@H](O)C[C@]2(C)[C@@]1(O)C(=O)CO [dexamethasone, reference compound]
- activity in the cigarette smoke model ([1]; 0.3-10 mg/kg, p.o.): inactive

- EC50 [4]: > 14.2 µM
- EC50 [5]: 0.143 µM
SMILES: Nc1ncnc2c1c(-c1cc(O)cc(F)c1)nn2Cc1nc2cccc(C#CCOCCOCCO)c2c(=O)n1Cc1ccccc1C(F)(F)F [Compound (Ia), 2-((4-Amino-3-(3-fluoro-5-hydroxyphenyl)-1H-pyrazolo[3,4-d]pyrimidin-1-yl)methyl)-5-(3-(2-(2-hydroxyethoxy)ethoxy)prop-1-yn-1-yl)-3-(2-(trifluoromethyl)benzyl)quinazolin-4(3H)-one]
- IC50 ([2]; read-out: IC50, Cytostim-induced IFNγ in PBMCs): 0.0608 µM
- IC50 ([2]; read-out: IC50, Cytostim-induced IL-4 in PBMCs): 0.674 µM
- IC50 ([2]; read-out: IC50, Cytostim-induced IL-5 in PBMCs): 0.0145 µM
- IC50 ([2]; read-out: IC50, Cytostim-induced IL-13 in PBMCs): 0.0061 µM
- Cell Viability MTT Assay in d-U937 cells at 4 hr ([3]; 4 hr): −ve (−ve indicates a value of <30% inhibition at 10 μg/mL)
- Cell Viability MTT Assay in d-U937 cells at 24 hr ([3]; 24 hr): −ve (−ve indicates a value of <30% inhibition at 10 μg/mL)

SMILES: CCC(=O)O[C@]1(C(=O)SCF)[C@H](C)C[C@H]2[C@@H]3C[C@H](F)C4=CC(=O)C=C[C@]4(C)[C@@]3(F)[C@@H](O)C[C@@]21C [fluticasone propionate, reference compound]
- effect as monotherapy in the cigarette smoke model ([1]; dose used for co-administration with compound (I)): lacks any significant effect as monotherapy
